Consider one compound from ChEMBL document CHEMBL6074686 (Eur J Med Chem, 2025).

Calls of active or inactive are those of the source. No cut-off for these calls is given here.

The subject of series [1] is SK-OV-3. Briefly: Inhibition of cell migration in human SK-OV-3 cells assessed as reduction in wound closure at 3.125 nM incubated for 24 hrs by wound healing assay (reference value: 21.8 +/- 7.6%). The conditions noted are these: SK-OV-3, 24 h, values are per cent of control. It is filed as functional.
Series [2] has as its system SK-OV-3. In words: Antitumor activity against human SK-OV-3 cells xenografted xenografted in female BALB/c nude mouse assessed as upregulation of cleaved PARP expression level in tumor at 5 to 10 mg/kg, […] via tail vein once every 2 to 3 days by immunohistochemistry analysis. It is filed as functional, organism-based. The conditions noted are these: dose 5-10 mg/kg, time 2-3 day.

Series [3] relates to MCF7. In words: Induction of apoptosis in human MCF7 cells assessed as upregulation of Bax expression at 100 nM incubated for 24 hrs by Western blotting analysis. It is filed as functional, cell-based.
Series [4] deals with SK-OV-3. Briefly: Antitumor activity against human SK-OV-3 cells xenografted xenografted in female BALB/c nude mouse assessed as decrease in Ki-67 expression level in tumor at 10 mg/kg, […] via tail vein once every 2 to 3 days by immunohistochemistry analysis. It is filed as functional, organism-based. The settings on record: time 2-3 day.
A short description of series [5]: Toxicity in female BALB/c nude mouse xenografted with human SK-OV-3 cells assessed as drug tolerance by measuring body weight loss at 15 mg/kg, administered via tail vein for 5 days and measured daily. The settings on record: in vivo, iv, 120 h, time 5 day. It is filed as organism-based.
A short description of series [6]: Toxicity in female BALB/c nude mouse xenografted with human SK-OV-3 cells assessed as effect on body weight at 5 to 10 mg/kg, […] via tail vein once every 2 to 3 days. It is filed as organism-based. The conditions noted are these: in vivo, dose lower 5 mg/kg, time lower 2 day, dose upper 10 mg/kg, time upper 3 day.
For series [7], the system named is SK-OV-3. Briefly: Inhibition of cell migration in human SK-OV-3 cells assessed as wound closure ratio at 12.5 nM incubated for 24 hrs by wound healing assay (reference value: 100%). On the set-up: scale not given: the % may be the effect or the level left. It is filed as functional.
In series [8] the test system is SK-OV-3. Briefly: Inhibition of cell migration in human SK-OV-3 cells assessed as ratio of migrated cells at 2.5 nM incubated for 24 hrs by Transwell assay (reference value: 100 %). It is filed as functional. More on the design: scale not given: the % may be the effect or the level left.

For the compound `CNc1nc(N2CCCc3cc(OC)ccc32)c2cc(F)ccc2n1`, in series [1], the response, % of control at 0.003125 µM was 22.8%. Further, the outcome in series [2], in series [3] and in series [4] was Active. In addition, the Activity result was “Toxic” in series [5], “Non-toxic” in series [6], 65.8% in series [7] and 62.9% in series [8].
